Experimental data from paper PMC8869984, “Multifunctional Silver(I) Complexes with Metronidazole Drug Reveal Antimicrobial Properties and Antitumor Activity against Human Hepatoma and Colorectal Adenocarcinoma Cells” (Cancers, 2022).
Values after ≈ are worked out from the molar mass of the structure shown. Read-outs that look alike come from different tables or passages of the source.

What was measured:
HepG2 cells = test: NRU assay (lysosomal activity), 72 h exposure; type: cell-based, human; conditions: Homo sapiens, mean ± SD, n = 3
Method: The human hepatoma (HepG2) and colorectal adenocarcinoma (Caco-2) cells were purchased from the American Type Culture Collection: ATCC HB-8065 and ATCC HTB-37, respectively. These cells were cultured in Minimum Essential Medium Eagle (MEME) (ATCC). The murine fibroblasts cell line (Balb/c 3T3 clone A31) (gift from the Department of Swine Diseases of the National Veterinary Research Institute in Pulawy) was cultured in Dulbecco’s Modified Eagle Medium (DMEM) (ATCC). The media were supplemented with 10% BCS (Balb/c 3T3), 10% FBS (HepG2), 20% FBS (Caco-2), 1% L-glutamine, 1% antibiotic solution. The cells were maintained in 75 cm^2 cell culture flasks (NUNC) in a humidified incubator at 37 °C in an atmosphere of 5% CO2. The medium was refreshed every two or three days, and the cells were trypsinized by 0.25% trypsin–0.02% EDTA after reaching 70–80% confluence. Single cell suspensions were prepared and adjusted to a density of 2 × 10^5 cell/mL^−1 (HepG2), 1 × 10^5 cell/mL^−1 (Caco-2) and 5 × 10^4 cell/mL^−1 (Balb/c 3T3). The cell suspension was transferred to 96-well plates (100 µL/well) and incubated for 24 h before the exposure to the studied compounds. Stock solutions of ligands and metal complexes were prepared in sterile water and diluted with culture medium to obtain a concentration range from 0.1 to 10 µM. The final concentration of sterile water was 0.1% in the medium. […] As a negative control, cultured cells were grown in the absence of studied compounds. Each concentration was tested in six replicates in three independent experiments. Cytotoxicity was assessed after 72 h of exposure of the cells to compounds. The medium was not changed during the incubation time.
This method is based on staining living cells with neutral red, which readily diffuses through the plasma membrane and accumulates in lysosomes. […] After 10 min of shaking, the absorbance of the dissolved NR was measured using a Synergy HTX multi-mode reader (BioTek® Instruments Inc., Winooski, VT, USA) at 540 nm using a blank as a reference. Cytotoxicity was expressed as a percentage of the negative control. […]

[1] = tested on: S. epidermidis ATCC 12228; test: micro-dilution broth method (MIC, MBC); type: cell-based, Staphylococcus epidermidis
M. luteus ATCC 10240 = test: micro-dilution broth method (MIC, MBC); type: cell-based, Micrococcus luteus
B. subtilis ATCC 6633 = test: micro-dilution broth method (MIC, MBC); type: cell-based, Bacillus subtilis
E. faecalis ATCC 29212 = test: micro-dilution broth method (MIC, MBC); type: cell-based, Enterococcus faecalis
A. israeli ATCC 10049 = test: micro-dilution broth method (MIC, MBC); type: cell-based, Actinomyces israelii
C. jejunii ATCC 33291 = test: micro-dilution broth method (MIC, MBC); type: cell-based, Campylobacter jejunii
H. pylori ATCC 43504 = test: micro-dilution broth method (MIC, MBC); type: cell-based
[2] = tested on: S. typhimurium ATCC 14028; test: micro-dilution broth method (MIC, MBC); type: cell-based, Salmonella Typhimurium
E. coli ATCC 25922 = test: micro-dilution broth method (MIC, MBC); type: cell-based, Escherichia coli
K. pneumoniae ATCC 13883 = test: micro-dilution broth method (MIC, MBC); type: cell-based, Klebsiella pneumoniae
P. aeruginosa ATCC 9027 = test: micro-dilution broth method (MIC, MBC); type: cell-based, Pseudomonas aeruginosa
B. fragilis ATCC 10240 = test: micro-dilution broth method (MIC, MBC); type: cell-based, Bacteroides fragilis
P. intermedia ATCC 25611 = test: micro-dilution broth method (MIC, MBC); type: cell-based
F. nucleatum ATCC 25586 = test: micro-dilution broth method (MIC, MBC); type: cell-based, Fusobacterium nucleatum
V. parvula ATCC 10790 = test: micro-dilution broth method (MIC, MBC); type: cell-based, Veillonella parvula
[3] = S. epidermidis ATCC 12228, value in brackets
[4] = M. luteus ATCC 10240, value in brackets
[5] = B. subtilis ATCC 6633, value in brackets
[6] = E. faecalis ATCC 29212, value in brackets
[7] = A. israeli ATCC 10049, value in brackets
[8] = C. jejunii ATCC 33291, value in brackets
[9] = H. pylori ATCC 43504, value in brackets
[10] = S. typhimurium ATCC 14028, value in brackets
[11] = E. coli ATCC 25922, value in brackets
[12] = K. pneumoniae ATCC 13883, value in brackets
[13] = P. aeruginosa ATCC 9027, value in brackets
[14] = B. fragilis ATCC 10240, value in brackets
[15] = P. intermedia ATCC 25611, value in brackets
[16] = F. nucleatum ATCC 25586, value in brackets
[17] = Fusobacterium nucleatum, ATCC25586
[18] = V. parvula ATCC 10790, value in brackets

Structure (SMILES): Cc1ncc([N+](=O)[O-])n1CCO [MTZ, 2-Methyl-5-nitroimidazole-1-ethanol]
- IC50 (HepG2 cells): > 10 µM
- MBC [1, 3]: 2.93 µM/mL
- MIC [1, 3]: 2.93 µM/mL
- MBC ([1]; Staphylococcus epidermidis, ATCC12228, S. epidermidis ATCC 12228, read-out: MBC): 500 µg/mL (≈ 2920 µM)
- MIC ([1]; Staphylococcus epidermidis, ATCC12228, S. epidermidis ATCC 12228, read-out: MIC): 500 µg/mL (≈ 2920 µM)
- MBC (M. luteus ATCC 10240; [4]): > 5.85 µM/mL
- MIC (M. luteus ATCC 10240; [4]): 5.85 µM/mL
- MBC (M. luteus ATCC 10240; Micrococcus luteus, ATCC10240, M. luteus ATCC 10240, read-out: MBC): > 1000 µg/mL
- MIC (M. luteus ATCC 10240; Micrococcus luteus, ATCC10240, M. luteus ATCC 10240, read-out: MIC): 1000 µg/mL (≈ 5840 µM)
- MBC (B. subtilis ATCC 6633; [5]): 1.46 µM/mL
- MIC (B. subtilis ATCC 6633; [5]): 0.73 µM/mL
- MBC (B. subtilis ATCC 6633; Bacillus subtilis, ATCC6633, B. subtilis ATCC 6633, read-out: MBC): 250 µg/mL (≈ 1460 µM)
- MBC (E. faecalis ATCC 29212; [6]): > 5.85 µM/mL
- MIC (E. faecalis ATCC 29212; [6]): > 5.85 µM/mL
- MBC (E. faecalis ATCC 29212; Enterococcus faecalis, ATCC29212, E. faecalis ATCC 29212, read-out: MBC): > 1000 µg/mL
- MIC (E. faecalis ATCC 29212; Enterococcus faecalis, ATCC29212, E. faecalis ATCC 29212, read-out: MIC): > 1000 µg/mL
- MBC (A. israeli ATCC 10049; [7]): > 5.85 µM/mL
- MIC (A. israeli ATCC 10049; [7]): > 5.85 µM/mL
- MBC (A. israeli ATCC 10049; Actinomyces israelii, ATCC10049, A. israeli ATCC 10049, read-out: MBC): > 1000 µg/mL
- MIC (A. israeli ATCC 10049; Actinomyces israelii, ATCC10049, A. israeli ATCC 10049, read-out: MIC): > 1000 µg/mL
- MBC (C. jejunii ATCC 33291; [8]): > 5.85 µM/mL
- MIC (C. jejunii ATCC 33291; [8]): 2.93 µM/mL
- MBC (C. jejunii ATCC 33291; Campylobacter, ATCC33291, C. jejunii ATCC 33291, read-out: MBC): > 1000 µg/mL
- MIC (C. jejunii ATCC 33291; Campylobacter, ATCC33291, C. jejunii ATCC 33291, read-out: MIC): 500 µg/mL (≈ 2920 µM)
- MBC (H. pylori ATCC 43504; [9]): 0.09 µM/mL
- MIC (H. pylori ATCC 43504; [9]): 0.09 µM/mL
- MBC (H. pylori ATCC 43504; Helicobacter pylori, ATCC43504, H. pylori ATCC 43504, read-out: MBC): 15.6 µg/mL (≈ 91.1 µM)
- MIC (H. pylori ATCC 43504; Helicobacter pylori, ATCC43504, H. pylori ATCC 43504, read-out: MIC): 15.6 µg/mL (≈ 91.1 µM)
- MBC [2, 10]: > 5.85 µM/mL
- MIC [2, 10]: > 5.85 µM/mL
- MBC ([2]; Salmonella enterica, S. typhimurium ATCC 14028, read-out: MBC): > 1000 µg/mL
- MIC ([2]; Salmonella enterica, S. typhimurium ATCC 14028, read-out: MIC): > 1000 µg/mL
- MBC (E. coli ATCC 25922; [11]): > 5.85 µM/mL
- MIC (E. coli ATCC 25922; [11]): > 5.85 µM/mL
- MBC (E. coli ATCC 25922; Escherichia coli, ATCC25922, E. coli ATCC 25922, read-out: MBC): > 1000 µg/mL
- MIC (E. coli ATCC 25922; Escherichia coli, ATCC25922, E. coli ATCC 25922, read-out: MIC): > 1000 µg/mL
- MBC (K. pneumoniae ATCC 13883; [12]): 5.85 µM/mL
- MIC (K. pneumoniae ATCC 13883; [12]): 5.85 µM/mL
- MBC (K. pneumoniae ATCC 13883; Klebsiella pneumoniae, ATCC13883, K. pneumoniae ATCC 13883, read-out: MBC): 1000 µg/mL (≈ 5840 µM)
- MIC (K. pneumoniae ATCC 13883; Klebsiella pneumoniae, ATCC13883, K. pneumoniae ATCC 13883, read-out: MIC): 1000 µg/mL (≈ 5840 µM)
- MBC (P. aeruginosa ATCC 9027; [13]): > 5.85 µM/mL
- MIC (P. aeruginosa ATCC 9027; [13]): > 5.85 µM/mL
- MBC (P. aeruginosa ATCC 9027; Pseudomonas aeruginosa, ATCC9027, P. aeruginosa ATCC 9027, read-out: MBC): > 1000 µg/mL
- MIC (P. aeruginosa ATCC 9027; Pseudomonas aeruginosa, ATCC9027, P. aeruginosa ATCC 9027, read-out: MIC): > 1000 µg/mL
- MBC (B. fragilis ATCC 10240; [14]): 0.003 µM/mL
- MIC (B. fragilis ATCC 10240; [14]): 0.003 µM/mL
- MBC (B. fragilis ATCC 10240; Bacteroides fragilis, ATCC10240, B. fragilis ATCC 10240, read-out: MBC): 0.49 µg/mL (≈ 2.86 µM)
- MIC (B. fragilis ATCC 10240; Bacteroides fragilis, ATCC10240, B. fragilis ATCC 10240, read-out: MIC): 0.49 µg/mL (≈ 2.86 µM)
- MBC (P. intermedia ATCC 25611; [15]): > 5.85 µM/mL
- MIC (P. intermedia ATCC 25611; [15]): 5.85 µM/mL
- MBC (P. intermedia ATCC 25611; Prevotella intermedia, ATCC25611, P. intermedia ATCC 25611, read-out: MBC): > 1000 µg/mL
- MIC (P. intermedia ATCC 25611; Prevotella intermedia, ATCC25611, P. intermedia ATCC 25611, read-out: MIC): 1000 µg/mL (≈ 5840 µM)
- MBC (F. nucleatum ATCC 25586; [16]): 0.01 µM/mL
- MIC (F. nucleatum ATCC 25586; [16]): 0.01 µM/mL
- MBC (F. nucleatum ATCC 25586; [17]): 1.95 µg/mL (≈ 11.4 µM)
- MIC (F. nucleatum ATCC 25586; [17]): 1.95 µg/mL (≈ 11.4 µM)
- MBC (V. parvula ATCC 10790; [18]): 0.01 µM/mL
- MIC (V. parvula ATCC 10790; [18]): 0.01 µM/mL
- MBC (V. parvula ATCC 10790; Veillonella parvula, ATCC10790): 1.95 µg/mL (≈ 11.4 µM)
- MIC (V. parvula ATCC 10790; Veillonella parvula, ATCC10790): 1.95 µg/mL (≈ 11.4 µM)
